Legend:
[1] = molecular target: T1, cathepsin D (from human liver) (Homo sapiens, UniProt P07339); assay: Cathepsin D fluorescent substrate kinetic assay; type: biochemical; conditions: pH 5.5, substrate WTSVLMAAPC-MR121
T1 construct: cathepsin D (from human liver, Calbiochem) diluted in assay buffer; purchased Calbiochem; host or cells: human liver
From the text: (§1) Cathepsin D and Cathepsin E Fluorescent Substrate Kinetic Assays
(§2) The MR121 fluorescence assays described below are based on the fact that MR121 forms a non-fluorescent ground state complex with tryptophan. In solution this formation occurs at millimolar concentrations of tryptophan. The mechanism can be used to design a generic biochemical assay for proteases. A substrate peptide is labeled at the N-terminus with tryptophan and at the C-terminus with the fluorophore MR121 (for cathepsin D the 10 amino acid peptide WTSVLMAAPC-MR121 was used; for cathepsin E, MR121-CKLVFFAEDW was used). In absence of protease activity, the substrates remain intact and the MR121 fluorescence is reduced by the high local Trp-concentration. If the substrates are cleaved by the enzymes the MR121 fluorescence is recovered.
(§3) The fluorescent substrate cathepsin D and cathepsin E kinetic assays were performed at room temperature in 384-well microtiter plates (black with clear flat bottom, non-binding surface plates from Corning) in a final volume of 51 μl. The test compounds were serially diluted in DMSO (15 concentrations, ⅓ dilution steps) and 1 μl of diluted compounds were mixed for 10 min with 40 μl of cathepsin D (from human liver, Calbiochem) diluted in assay buffer (100 mM sodium acetate, 0.05% BSA, pH 5.5; final concentration:200 nM) or with 40 μl of recombinant human cathepsin E (R&D Systems) diluted in assay buffer (100 mM sodium acetate, 0.05% BSA, pH 4.5; final concentration:0.01 nM). After addition of 10 μl of the cathepsin D substrate WTSVLMAAPC-MR121 diluted in cathepsin D assay buffer (final concentration:300 nM) or 10 μl of the cathepsin E substrate MR121-CKLVFFAEDW diluted in cathepsin E assay buffer (final concentration:300 nM), the plates were strongly shaken for 2 minutes. The enzymatic reaction was followed in a plate: vision reader (Perkin Elmer) (excitation wavelength:630 nm; emission:695 nm) for at least 30 minutes in a kinetic measurement detecting an increase of MR121 fluorescence during the reaction time. The slope in the linear range of the kinetic was calculated and the IC50 of the test compounds were determined using a four parameter equation for curve fitting.

BACE1 = molecular target: T2, BACE1 (Homo sapiens, UniProt P56817); assay: Cellular Aβ-lowering assay (Abeta 40 AlphaLISA, HEK293 APP cells); type: cell-based; conditions: 18-20 hrs incubation, Aβ 40 in culture supernatant, read-out: BACE1 cell act. Aβ40 IC50
T2 construct: endogenous in cells; host or cells: HEK293 APP cells
T2 sequence (P56817 46-501): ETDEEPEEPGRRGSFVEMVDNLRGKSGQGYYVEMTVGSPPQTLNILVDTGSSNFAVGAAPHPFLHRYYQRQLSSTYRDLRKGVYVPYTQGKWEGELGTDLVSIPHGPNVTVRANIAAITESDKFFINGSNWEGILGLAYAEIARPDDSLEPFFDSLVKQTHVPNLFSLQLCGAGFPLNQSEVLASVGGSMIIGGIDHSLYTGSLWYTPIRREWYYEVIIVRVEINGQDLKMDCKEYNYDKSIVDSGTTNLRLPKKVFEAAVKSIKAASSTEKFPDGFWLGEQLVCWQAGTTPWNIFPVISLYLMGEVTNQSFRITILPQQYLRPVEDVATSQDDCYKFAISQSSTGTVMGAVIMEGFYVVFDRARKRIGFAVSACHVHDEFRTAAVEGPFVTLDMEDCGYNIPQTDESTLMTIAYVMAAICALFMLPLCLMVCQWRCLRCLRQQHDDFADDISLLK
Experimental: Cellular Aβ-Lowering Assay:
The Abeta 40 AlphaLISA Assay can be used. The HEK293 APP cells were seeded in 96 well Microtiter plates in cell culture medium (Iscove's, plus 10% (v/v) fetal bovine serum, penicillin/streptomycin) to about 80% confluency and the compounds were added at a 3× concentration in ⅓ volume of culture medium (final DMSO concentration was kept at 1% v/v). After 18-20 hrs incubation at 37° C. and 5% CO2 in a humidified incubator, the culture supernatants were harvested for the determination of Aβ 40 concentrations using Perkin-Elmer Human Amyloid beta 1-40 (high specificity) Kit (Cat#AL275C).
In a Perkin-Elmer White Optiplate-384 (Cat#6007290), 2 ul culture supernatants were combined with 2 μl of a 10× AlphaLISA Anti-hAβAcceptor beads + Biotinylated Antibody Anti-Aβ 1-40 Mix (50 μg/mL/5 nM). After 1 hour room temperature incubation, 16 μl of a 1.25× preparation of Streptavidin (SA) Donor beads (25 μg/mL) were added and incubated for 30 minutes in the Dark. Light Emission at 615 nm was then recorded using EnVision-Alpha Reader. Levels of Aβ 40 in the culture supernatants were calculated as percentage of maximum signal (cells treated with 1% DMSO without inhibitor). The IC50 values were calculated using the Excel XLfit software.

CYP2D6 = molecular target: T3, CYP2D6 (Homo sapiens, UniProt P10635); assay: CYP inhibition assay, human liver microsomes; type: in vitro ADME; conditions: human liver microsomes, substrate dextromethorphan; read-out: CYP IC50 2D6
T3 construct: 0.2 mg/ml pooled human liver microsomes; from tissue; host or cells: pooled human liver microsomes
T3 sequence (P10635 whole entry): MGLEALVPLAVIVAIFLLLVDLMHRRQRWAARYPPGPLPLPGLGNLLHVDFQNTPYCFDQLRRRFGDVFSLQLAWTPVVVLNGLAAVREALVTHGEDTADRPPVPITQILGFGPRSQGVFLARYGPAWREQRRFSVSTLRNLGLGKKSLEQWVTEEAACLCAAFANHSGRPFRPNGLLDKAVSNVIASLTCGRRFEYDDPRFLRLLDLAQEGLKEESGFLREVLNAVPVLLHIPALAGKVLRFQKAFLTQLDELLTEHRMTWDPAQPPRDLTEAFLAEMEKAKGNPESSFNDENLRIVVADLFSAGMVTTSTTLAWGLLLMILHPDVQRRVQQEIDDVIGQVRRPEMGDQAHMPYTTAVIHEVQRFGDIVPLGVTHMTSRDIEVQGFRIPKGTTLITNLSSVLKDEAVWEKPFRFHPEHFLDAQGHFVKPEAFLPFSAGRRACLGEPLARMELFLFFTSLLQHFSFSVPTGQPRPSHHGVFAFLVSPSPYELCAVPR
Experimental: (§4) Inhibition of cytochromes P450 (CYPs) 2C9, 2D6 and 3A4 was assessed using human liver microsomes and CYP-selective substrate metabolism reactions. 50 μl incubations were made up containing (finally) 0.2 mg/ml pooled human liver microsomes, 5 μM substrate (diclofenac for CYP2C9 [4′hydroxylase], dextromethorphan for CYP2D6 [O-demethylase] or midazolam for CYP3A4 [1′hydroxylase]), 0.25 μL DMSO containing test inhibitor and NADPH regenerating system. Test inhibitor concentrations of 50, 16.7, 5.6, 1.9, 0.6 and 0.2 μM were assessed in singlicate. Incubations were prewarmed to 37° C. for 10 minutes before initiation by addition of NADPH regenerating system. Incubations were quenched after 5 minutes (20 minutes for dextromethorphan) by addition of 50 μl cold acetonitrile containing 20 ng/ml 4-OH-diclofenac-13C6, 20 ng/mL dextrorphan-D3 and 20 ng/mL 1-OH-midazolam-D4. Quenched incubates were stored at −20° C. for at least 1 hour before centrifugation (20,000× g, 20 minutes). Supernatants were removed and diluted 1:1 with water prior to analysis using a RapidFire sample injector system and API4000 mass spectrometer. Peak areas for substrate, metabolite and stable-labelled metabolite standard were determined using MS/MS. The peak area ratios between the metabolite generated by the enzymatic reaction and the internal standard were used in subsequent calculations. The percentage of (DMSO) control activity was calculated for each incubate and IC50 values estimated by non-linear regression. Sulfaphenazole, quinidine or ketoconazole were tested in each CYP2C9, CYP2D6 or CYP3A4 inhibition experiment, respectively, to ensure assay sensitivity and reproducibility. (Validated assays for human cytochrome P450 activities, R. L. Walsky and R. S. Obach, Drug Metabolism and Disposition 32: 647-660, 2004. and S. Fowler and H. Zhang, The AAPS Journal, Vol. 10, No. 2, 410-424, 2008)

CYP2C9 = molecular target: T4, CYP2C9 (Homo sapiens, UniProt P11712); assay: CYP inhibition assay, human liver microsomes; type: in vitro ADME; conditions: human liver microsomes, substrate diclofenac; read-out: CYP IC50 2C9
T4 construct: 0.2 mg/ml pooled human liver microsomes; from tissue; host or cells: pooled human liver microsomes
T4 sequence (P11712 whole entry): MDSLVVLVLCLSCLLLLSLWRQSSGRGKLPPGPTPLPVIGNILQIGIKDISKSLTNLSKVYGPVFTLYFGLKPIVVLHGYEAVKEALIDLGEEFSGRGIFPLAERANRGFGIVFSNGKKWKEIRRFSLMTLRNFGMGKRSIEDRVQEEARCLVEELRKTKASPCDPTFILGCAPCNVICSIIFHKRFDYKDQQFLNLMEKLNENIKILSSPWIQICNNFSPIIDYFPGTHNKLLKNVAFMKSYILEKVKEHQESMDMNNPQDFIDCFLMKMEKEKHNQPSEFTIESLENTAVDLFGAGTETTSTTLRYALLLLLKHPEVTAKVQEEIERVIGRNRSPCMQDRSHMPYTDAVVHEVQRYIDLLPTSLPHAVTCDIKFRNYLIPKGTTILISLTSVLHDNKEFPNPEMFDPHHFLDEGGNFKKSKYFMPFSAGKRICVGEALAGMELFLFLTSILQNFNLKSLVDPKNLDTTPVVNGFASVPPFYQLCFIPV
Experimental: as §4

[2] = molecular target: T5, recombinant human cathepsin E (Homo sapiens, UniProt P14091); assay: Cathepsin E fluorescent substrate kinetic assay; type: biochemical; conditions: pH 4.5, substrate MR121-CKLVFFAEDW
T5 construct: purchased R&D Systems
T5 sequence (P14091 54-396): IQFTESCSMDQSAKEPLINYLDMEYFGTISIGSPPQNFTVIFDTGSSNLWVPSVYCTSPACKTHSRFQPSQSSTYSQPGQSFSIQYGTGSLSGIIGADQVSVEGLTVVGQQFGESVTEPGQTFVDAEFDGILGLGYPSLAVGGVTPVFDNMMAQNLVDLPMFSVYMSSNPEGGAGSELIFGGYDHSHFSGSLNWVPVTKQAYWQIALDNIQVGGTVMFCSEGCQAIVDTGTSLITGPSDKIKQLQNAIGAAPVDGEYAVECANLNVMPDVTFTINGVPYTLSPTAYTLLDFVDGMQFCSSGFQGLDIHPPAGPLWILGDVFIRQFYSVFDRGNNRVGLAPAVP
From the text: as §1, §2, §3

[3] = GSH human, in vitro adduct formation; type: in vitro ADME; set-up: key: NF = in vitro no significant adduct formation relative to control; conditions: in vitro adduct formation relative to control

T1 sequence (P07339 65-162 limits assumed): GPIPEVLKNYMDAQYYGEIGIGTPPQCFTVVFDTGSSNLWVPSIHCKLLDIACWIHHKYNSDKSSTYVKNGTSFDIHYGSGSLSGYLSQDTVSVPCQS
T1 sequence (P07339 169-412 limits assumed): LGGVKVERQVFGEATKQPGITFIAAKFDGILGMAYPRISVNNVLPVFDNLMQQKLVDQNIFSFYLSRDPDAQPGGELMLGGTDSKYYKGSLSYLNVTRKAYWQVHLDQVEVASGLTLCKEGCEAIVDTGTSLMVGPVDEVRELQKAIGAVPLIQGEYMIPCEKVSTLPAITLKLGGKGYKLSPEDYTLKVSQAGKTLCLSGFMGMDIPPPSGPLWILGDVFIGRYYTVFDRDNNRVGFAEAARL

**Q.** Which IC50 [1] does the source give for `CN=[S@]1(=O)C[C@@](CF)(c2cc(-c3cc(-c4ncc(Cl)cn4)no3)ccc2F)N=C(N)C1(C)C` [Example 1, (1S,3S)-5-amino-3-(5-(3-(5-chloropyrimidin-2-yl)isoxazol-5-yl)-2-fluorophenyl)-3-(fluoromethyl)-6,6-dimethyl-1-(methylimino)-3,6-dihydro-2H-1,4-thiazine 1-oxide 2,2,2-trifluoroacetate] here?
**A.** 75 µM

**Q.** And the IC50 (BACE1)?
**A.** 0.095 µM

**Q.** What about the IC50 (CYP2D6) of the same compound?
**A.** > 10 µM

**Q.** What about the IC50 (CYP2C9) of the same compound?
**A.** > 10 µM

**Q.** And the IC50 [2]?
**A.** 139 µM

**Q.** What about the GSH human [3] of the same compound?
**A.** NF
